Reference: ChEMBL document CHEMBL4033770, “Importance of a 4-Alkyl Substituent for Activity in the Englerin Series” (2017)

Legend:
Type in all cases: functional
[1] = tested on: ACHN; test: Growth inhibition of human ACHN cells incubated for 48 hrs by SRB assay
[2] = tested on: A498; test: Growth inhibition of human A498 cells incubated for 48 hrs by SRB assay; conditions: A498, 48 h
[3] = tested on: Hs-578T; test: Growth inhibition of human Hs 578T cells incubated for 48 hrs by SRB assay
[4] = tested on: UO-31; test: Growth inhibition of human UO31 cells incubated for 48 hrs by SRB assay; conditions: UO-31, 48 h

Row | Compound | GI50 [1] [nM] | GI50 [2] [nM] | GI50 [3] [nM] | GI50 [4] [nM]
1 | CC(C)[C@@H]1CC[C@@H]2[C@@H]1[C@H](OC(=O)/C=C/c1ccccc1)[C@@]1(C(C)C)C[C@@H](OC(=O)CO)[C@]2(C)O1 | 8.3 | 8.1 | 3.2 | 11
2 | CC[C@@H]1CC[C@@H]2[C@@H]1[C@H](OC(=O)/C=C/c1ccccc1)[C@@]1(C(C)C)C[C@@H](OC(=O)CO)[C@]2(C)O1 | 13 | 38 | 4.1 | 19
3 | CC(C)[C@]12C[C@@H](OC(=O)CO)[C@](C)(O1)[C@@H]1CCC[C@H]1[C@@H]2OC(=O)/C=C/c1ccccc1 | 162 | 123 | 31 | 182
